From patent US11767305B2, “Advantageous benzofuran compositions for mental disorders or enhancement” (Tactogen Inc, priority 2020, dated 2023)
“Also recorded” adds a separate entry of the source.

Columns and labels:
neuritogenesis = details: cited from earlier work
[1] = target: T1, serotonin (5-HT) transporter (SERT) (Rattus norvegicus (Rat), UniProt P31652); assay: Rat synaptosome SERT [3H]5-HT uptake inhibition assay; details: Inhibition of [3H]5-HT Uptake at SERT IC50 (nM), 5 nM [3H]5-HT
[2] = target: T1, serotonin (5-HT) transporter (SERT); assay: Rat synaptosome SERT [3H]5-HT release assay; details: [3H]5-HT release via SERT EC50 (nM), 5 nM [3H]5-HT
5-HT1B = 5-HT1B (Homo sapiens (Human), UniProt P28222); details: cited from earlier work
healthy human individual = assay: Human effects of non-racemic 5-MAPB, self-reported ratings (Good, Bad, Open); format: in vivo; details: averaged from all sessions, 54 mg 5-MAPB HCl oral in two halves
Procedure: The effects of non-racemic 5-MAPB HCl were tested by a healthy human individual at four different ratios of enantiomers plus the racemate as a control: • 54 mg S and 0 mg R (100% S) • 47 mg Sand 7 mg R (87% S) • 36 mg S and 18 mg R (67% S) • 27 mg S and 27 mg R (50% S) • 7 mg S and 47 mg R (13% S)
Two trials were carried out at each ratio, except for 13% S where only one was conducted. Trials were at least 72 h apart.
5-MAPB HCl was dissolved in 1.5 ml distilled water and consumed in two halves, separated by 1 hour. Starting at 3 hours after administration, tablets of 250 mg ascorbic acid and capsules of 300 mg alpha lipoic acid were taken ad libitum (approximately every hour for a total of 4 administrations).
Measurements were made approximately every 2 hours until post 6 hours and the maximum ratings per session were analyzed. Additionally, an index of good drug effects versus emotional openness, calculated as (Open−Good)/(200, the theoretical maximum of Open+Good), was constructed at each time point and the maximum analyzed. In healthy volunteers, Good Ratings can be considered a predictor of abuse liability. Accordingly, this index can be used as an indicator of the balance of a therapeutic effect (emotional openness) vs abuse liability.
Historic data of two trials 50 mg RS-5-MAPB Cl from the same individual were also included in the analysis for comparison.

MDR1-MDCKII = assay: In vitro absorption assay, MDR1-MDCKII permeability; format: in vitro ADME; details: 10 μM
Procedure: (§1) The permeability of 10 μM RS-5-MAPB in Caco-2, MDCKII, and MDR1-MDCKII cell line assays was assessed (Table 6). Both the AB and BA directions with and without the addition of a Pgp-specific inhibitor (verapamil), a MRP1 inhibitor (MK571), and an ATP-binding cassette subfamily G member 2 (ABCG2/BCRP) inhibitor (KO143) were measured. Trials were repeated twice, and values averaged.

MDCKII = assay: In vitro absorption assay, MDCKII permeability; format: in vitro ADME; details: 10 μM, pH 7.4/7.4
Procedure: as §1

SERT [3] = target: T2, SERT (Homo sapiens (Human), UniProt P31645); assay: hSERT release assay in CHO cells ([3H]serotonin); details: read-out: EC50 SERT (Mean ± SEM), CHO cells expressing hSERT
Caco-2 = assay: In vitro absorption assay, Caco-2 permeability; format: in vitro ADME; details: for Permeability (Papp, 10^-6 cm/s) A-B / Permeability (Papp, 10^-6 cm/s) B-A: 10 μM
Procedure: as §1

DAT [4] = target: T3, DAT (Homo sapiens (Human), UniProt Q01959); assay: hDAT release assay in CHO cells ([3H]dopamine); details: read-out: EC50 DAT (Mean ± SEM), CHO cells expressing hDAT
SERT [5] = target: T2, SERT; details: read-out: IC50 inhibiting reuptake at SERT; cited from earlier work
DAT [6] = target: T3, DAT; details: read-out: IC50 inhibiting reuptake at DAT; cited from earlier work

5-HT1B, sequence (P28222 whole entry, looked up, species assumed): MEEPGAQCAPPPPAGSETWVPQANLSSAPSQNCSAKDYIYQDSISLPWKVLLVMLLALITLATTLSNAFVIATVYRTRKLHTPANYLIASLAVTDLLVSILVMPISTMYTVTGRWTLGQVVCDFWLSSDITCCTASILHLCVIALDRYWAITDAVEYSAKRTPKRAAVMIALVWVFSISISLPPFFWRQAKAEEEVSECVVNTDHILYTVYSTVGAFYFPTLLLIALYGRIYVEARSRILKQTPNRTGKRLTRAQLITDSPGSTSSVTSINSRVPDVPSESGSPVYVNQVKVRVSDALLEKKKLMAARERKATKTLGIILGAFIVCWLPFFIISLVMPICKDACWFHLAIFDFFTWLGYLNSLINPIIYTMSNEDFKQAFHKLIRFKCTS

Structure (SMILES): CNC(C)Cc1ccc2c(c1)OCO2 (stereo not shown) [MDMA]
- EC50 (neuritogenesis; read-out: EC50 for promoting neuritogenesis): 7.41 nM
- Emax for promoting neuritogenesis (neuritogenesis; relative to ketamine): approximately twice that of ketamine
- IC50 [1]: 384 ± 32.8 nM
- EC50 [2]: 94.3 ± 13.6 nM
- binding to 5-HT1B (5-HT1B): does not bind directly

Structure (SMILES): CNC(C)Cc1ccc2occc2c1.Cl (stereo not shown) [RS-5-MAPB]
- Bad (healthy human individual; maximum 0-100 rating of bad drug effects): 10%
- Open (healthy human individual; maximum 0-100 rating of emotional openness): 45%
- Good (healthy human individual; maximum 0-100 rating of good drug effects): 50%
- Permeability (Papp, 10^-6 cm/s) A-B (MDR1-MDCKII; pH 7.4/7.4): 68.7 10^-6 cm/s
- Permeability (Papp, 10^-6 cm/s) B-A (MDR1-MDCKII; pH 7.4/7.4): 20.5 10^-6 cm/s
- Permeability (Papp, 10^-6 cm/s) A-B (MDR1-MDCKII; pH 7.4/7.4 + verapamil): 42.8 10^-6 cm/s
- Permeability (Papp, 10^-6 cm/s) B-A (MDR1-MDCKII; pH 7.4/7.4 + verapamil): 30.4 10^-6 cm/s
- Permeability (Papp, 10^-6 cm/s) A-B (MDCKII): 82.1 10^-6 cm/s
- Permeability (Papp, 10^-6 cm/s) B-A (MDCKII): 19.8 10^-6 cm/s
- EC50 (SERT [3]): 90 ± 16 nM
- Permeability (Papp, 10^-6 cm/s) A-B (Caco-2; Caco-2, pH 7.4/7.4): 81 10^-6 cm/s
- Permeability (Papp, 10^-6 cm/s) B-A (Caco-2; Caco-2, pH 7.4/7.4): 29.1 10^-6 cm/s
- Permeability (Papp, 10^-6 cm/s) A-B (Caco-2; Caco-2, pH 7.4/7.4 + KO143): 75.3 10^-6 cm/s
- Permeability (Papp, 10^-6 cm/s) B-A (Caco-2; Caco-2, pH 7.4/7.4 + KO143): 14 10^-6 cm/s
- Permeability (Papp, 10^-6 cm/s) A-B (Caco-2; Caco-2, pH 7.4/7.4 + verapamil): 37.6 10^-6 cm/s
- Permeability (Papp, 10^-6 cm/s) B-A (Caco-2; Caco-2, pH 7.4/7.4 + verapamil): 23 10^-6 cm/s
- absorption and transport (conclusion from permeability assays) (Caco-2; Caco-2, MDCKII and MDR1-MDCKII): well absorbed; also recorded: actively transported through a mechanism that was inhibited by verapamil
- EC50 (DAT [4]): 459 ± 48 nM

Structure (SMILES): CNC(C)Cc1ccc2occc2c1 (racemic) [racemic 5-MAPB, 1-(benzofuran-5-yl)-N-methylpropan-2-amine]
- IC50 (SERT [5]): 8500 nM
- IC50 (DAT [6]): 3100 nM
